Series [1] concerns Na^+ current of larger diameter DRG neurons. Type of series: cell-based, mouse.
Series [2] has as its system TTX-S Na^+ currents from adult mouse DRG neurons.
In series [3] the test system is Nav1.7. The note with it: cited from earlier work.
The subject of series [4] is hNav1.4. Kind of series: automated patch-clamp, hNav1.4. In kind it is cell-based, human. The source says: (§1) Chips with single-hole and high-resistance 5.14 ± 0.02 MΩ (n = 384) were used for HEK-293 cell recordings. Only cells with seal resistance above 500 MΩ and Rs values <15 MΩ were kept for analyses. All Rs values were compensated at 90%. Voltage pulses and whole-cell recordings were achieved using the PatchControl384 v1.5.3 software (Nanion Technologies, Munich, Germany) and the Biomek v1.0 interface (Beckman Coulter, Villepinte, France). Prior to recordings, dissociated cells were shaken at 60 rpm in a cell hotel reservoir at 10°C. After cell catching, sealing, whole-cell formation, liquid application, recording, and data acquisition were all performed sequentially and automatically. The intracellular solution contained (in mM): 10 KCl, 110 kF, 10 NaCl, 1 MgCl2, 1 CaCl2, 10 Ethylene Glycol Tetraacetic Acid (EGTA) and 10 HEPES (pH 7.2, osmolarity 280 mOsm), and the extracellular solution (in mM): 140 NaCl, 4 KCl, 2 CaCl2, 1 MgCl2, five glucose, and 10 HEPES (pH 7.4, osmolarity 298 mOsm). Whole-cell experiments were done at −100 mV holding potential, while currents triggered at 0 mV test potential were sampled at 10 kHz (sweeps every 8 s). Compounds were prepared at various concentrations in the extracellular solution supplemented with 0.3% BSA and distributed in 384-well plates according to a pre-designed template. […]
On the technique in general: In patch-clamp work, channel activity is measured electrically.

The subject of series [5] is TTX-R Na^+ currents from adult mouse DRG neurons.
The subject of series [6] is mice (adult female Swiss). Kind of series: automated von Frey test (tactile sensitivity). In kind it is in vivo, mouse.
Series [7] concerns the target hNav1.7 (Homo sapiens, UniProt Q15858). Kind of series: automated patch-clamp, hNav1.7 stably expressed in CHO cells. Type of series: cell-based. How it is done:
(§2) CHO cells stably expressing hNav1.7 were cultured in Dulbecco’s Modified Eagle’s Medium (DMEM) supplemented with 10% foetal calf serum, 1 mM pyruvic acid, 4 mM glutamine, 10 U/mL penicillin and 10 μg/mL streptomycin (Gibco, Grand Island, NY), and incubated at 37°C in a 5% CO2 atmosphere. For electrophysiological recordings, cells were detached with trypsin and floating single cells were diluted (∼300,000 cells/mL) in medium containing (in mM): 4 KCl, 140 NaCl, five glucose, 10 2-[4-(2-hydroxyethyl)piperazin-1-yl]ethanesulfonic acid (HEPES, pH 7.4, osmolarity 290 mOsm). Similar culturing conditions were used for HEK-293 cell lines expressing hNav1.1, hNav1.2, hNav1.3, hNav1.5 and hNav1.6 channels. The plasmid pcDNA3.1+/C-(K)-DYK (Genscript, Piscataway, New Jersey, USA) was used for transient expression of mNav1.7 in HEK-293T cells using the Maxcyte electroporation system.
as §1, with “s).” for “s). Compounds were prepared at various concentrations in the extracellular solution supplemented with 0.3% BSA and distributed in 384-well plates according to a pre-designed template.”

Series [8] deals with mice (adult female Swiss). The note with it: mouse, in vivo. The source says: (§3) The study was experimentally designed to have group sizes of at least six animals per group, with intravenous injection as an exclusion criterion. In addition, randomization and blinding (one of the two experimenters being blind to treatment group) were undertaken in all animal experiments. […] Prior to testing, each mouse underwent a 20-min acclimation to the experimental laboratory environment (in its home cage).

Series [9] deals with mice (adult female Swiss). As to the kind of experiment: hot-plate test (heat sensitivity). In kind it is in vivo, mouse. The note with it: 55.0°C.
Text: as §3
Each mouse, injected or not with PBS +0.1% BSA or toxin solution in the right hind limb, was put on a hot-plate (HCP No. 35150, Ugo Basile, Italy) set at the temperature of 55.0°C ± 0.2°C 15–30 min after limb injection. The measured parameter as the first pain-related manifestation was the latency (in seconds) for the animal to shake the right hind limb ([Deuis et al., 2017]). This latency, considered as a painful response to heat, was recorded simultaneously by two observers (one being blind to treatment group) with a timer integrated into the set-up. A maximal cut-off time of 30 s was used to prevent tissue damage.

Series [10] addresses T1, mNav1.7 (Mus musculus, UniProt Q62205).
T1 construct: DYK (FLAG) tag of vector pcDNA3.1+/C-(K)-DYK (C); host or cells: HEK-293T cells, Maxcyte electroporation
As to the kind of experiment: automated patch-clamp, mNav1.7 electroporated in HEK293 cells. The note with it: mNav1.7 (Figure 4b). In kind it is cell-based. How it is done: as §2
(§4) Chips with single-hole and high-resistance 5.14 ± 0.02 MΩ (n = 384) were used for HEK-293 cell recordings. Only cells with seal resistance above 500 MΩ and Rs values <15 MΩ were kept for analyses. All Rs values were compensated at 90%. Voltage pulses and whole-cell recordings were achieved using the PatchControl384 v1.5.3 software (Nanion Technologies, Munich, Germany) and the Biomek v1.0 interface (Beckman Coulter, Villepinte, France). […]

The test system of series [11] is C57Bl6 mice. The note with it: mouse, in vivo, ip.
Series [12] relates to hNav1.5. As to the kind of experiment: automated patch-clamp, hNav1.5. Type of series: cell-based, human. The note with it: up to 3,300 nM (Figure 4c). The method, then: as §2, §4
The subject of series [13] is ryanodine receptor. The note with it: ref Ronjat et al., 2016; cited from earlier work.
Series [14] relates to N-type calcium channels. The note with it: cited from earlier work.

Several values for one entry are separate records, joined by “and”; a condition that tells them apart may be missing. Identical values can stand only once.

hNav1.7, sequence (Q15858 whole entry): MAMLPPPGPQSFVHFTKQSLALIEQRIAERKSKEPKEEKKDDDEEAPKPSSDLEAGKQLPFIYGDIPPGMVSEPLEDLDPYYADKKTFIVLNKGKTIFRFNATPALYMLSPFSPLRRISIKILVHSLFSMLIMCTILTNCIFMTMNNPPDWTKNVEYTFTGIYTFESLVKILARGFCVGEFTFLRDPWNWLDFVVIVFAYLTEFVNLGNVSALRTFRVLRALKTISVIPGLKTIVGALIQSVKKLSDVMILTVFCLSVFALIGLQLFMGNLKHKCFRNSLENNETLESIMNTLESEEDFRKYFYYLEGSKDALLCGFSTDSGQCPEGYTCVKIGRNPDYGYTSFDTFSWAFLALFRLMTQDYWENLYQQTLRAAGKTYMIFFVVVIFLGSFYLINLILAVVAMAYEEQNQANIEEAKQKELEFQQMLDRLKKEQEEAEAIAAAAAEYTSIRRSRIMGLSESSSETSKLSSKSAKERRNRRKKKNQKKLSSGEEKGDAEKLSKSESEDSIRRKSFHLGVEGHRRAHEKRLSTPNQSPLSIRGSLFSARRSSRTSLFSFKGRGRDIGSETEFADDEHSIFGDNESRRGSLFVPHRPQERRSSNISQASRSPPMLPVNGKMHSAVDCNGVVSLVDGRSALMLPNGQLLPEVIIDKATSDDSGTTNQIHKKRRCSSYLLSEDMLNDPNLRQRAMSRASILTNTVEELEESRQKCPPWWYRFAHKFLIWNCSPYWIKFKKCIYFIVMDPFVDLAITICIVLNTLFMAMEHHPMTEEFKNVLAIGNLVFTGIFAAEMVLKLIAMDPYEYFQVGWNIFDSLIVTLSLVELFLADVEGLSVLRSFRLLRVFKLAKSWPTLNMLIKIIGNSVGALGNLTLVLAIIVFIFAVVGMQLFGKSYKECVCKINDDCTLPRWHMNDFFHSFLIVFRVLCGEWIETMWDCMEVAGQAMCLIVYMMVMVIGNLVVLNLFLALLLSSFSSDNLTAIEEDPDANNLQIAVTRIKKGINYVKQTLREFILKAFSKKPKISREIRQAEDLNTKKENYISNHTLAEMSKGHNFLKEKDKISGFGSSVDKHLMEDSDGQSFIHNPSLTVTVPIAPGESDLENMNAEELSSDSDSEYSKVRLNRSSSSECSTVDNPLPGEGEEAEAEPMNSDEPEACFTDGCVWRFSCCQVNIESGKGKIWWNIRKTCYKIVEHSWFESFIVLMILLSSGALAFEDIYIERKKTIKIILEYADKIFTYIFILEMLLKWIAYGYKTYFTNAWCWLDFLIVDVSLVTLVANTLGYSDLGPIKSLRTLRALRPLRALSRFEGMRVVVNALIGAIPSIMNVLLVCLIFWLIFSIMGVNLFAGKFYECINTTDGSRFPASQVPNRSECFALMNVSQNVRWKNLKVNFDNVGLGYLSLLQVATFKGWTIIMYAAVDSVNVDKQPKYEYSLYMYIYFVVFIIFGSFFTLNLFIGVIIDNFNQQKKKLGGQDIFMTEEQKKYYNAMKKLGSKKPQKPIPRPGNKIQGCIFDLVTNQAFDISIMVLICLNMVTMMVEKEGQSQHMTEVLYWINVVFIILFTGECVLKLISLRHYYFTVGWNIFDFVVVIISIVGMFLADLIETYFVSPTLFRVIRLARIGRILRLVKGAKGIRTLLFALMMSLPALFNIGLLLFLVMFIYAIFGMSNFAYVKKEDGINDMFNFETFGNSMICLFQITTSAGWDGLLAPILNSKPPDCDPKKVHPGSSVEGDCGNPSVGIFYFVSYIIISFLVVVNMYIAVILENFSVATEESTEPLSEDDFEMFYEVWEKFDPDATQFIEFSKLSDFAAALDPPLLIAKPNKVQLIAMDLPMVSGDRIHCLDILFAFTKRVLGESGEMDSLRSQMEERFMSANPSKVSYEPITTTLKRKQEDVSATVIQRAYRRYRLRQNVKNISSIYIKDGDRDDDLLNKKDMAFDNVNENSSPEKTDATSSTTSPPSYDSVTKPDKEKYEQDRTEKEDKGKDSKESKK
T1 sequence (Q62205 whole entry): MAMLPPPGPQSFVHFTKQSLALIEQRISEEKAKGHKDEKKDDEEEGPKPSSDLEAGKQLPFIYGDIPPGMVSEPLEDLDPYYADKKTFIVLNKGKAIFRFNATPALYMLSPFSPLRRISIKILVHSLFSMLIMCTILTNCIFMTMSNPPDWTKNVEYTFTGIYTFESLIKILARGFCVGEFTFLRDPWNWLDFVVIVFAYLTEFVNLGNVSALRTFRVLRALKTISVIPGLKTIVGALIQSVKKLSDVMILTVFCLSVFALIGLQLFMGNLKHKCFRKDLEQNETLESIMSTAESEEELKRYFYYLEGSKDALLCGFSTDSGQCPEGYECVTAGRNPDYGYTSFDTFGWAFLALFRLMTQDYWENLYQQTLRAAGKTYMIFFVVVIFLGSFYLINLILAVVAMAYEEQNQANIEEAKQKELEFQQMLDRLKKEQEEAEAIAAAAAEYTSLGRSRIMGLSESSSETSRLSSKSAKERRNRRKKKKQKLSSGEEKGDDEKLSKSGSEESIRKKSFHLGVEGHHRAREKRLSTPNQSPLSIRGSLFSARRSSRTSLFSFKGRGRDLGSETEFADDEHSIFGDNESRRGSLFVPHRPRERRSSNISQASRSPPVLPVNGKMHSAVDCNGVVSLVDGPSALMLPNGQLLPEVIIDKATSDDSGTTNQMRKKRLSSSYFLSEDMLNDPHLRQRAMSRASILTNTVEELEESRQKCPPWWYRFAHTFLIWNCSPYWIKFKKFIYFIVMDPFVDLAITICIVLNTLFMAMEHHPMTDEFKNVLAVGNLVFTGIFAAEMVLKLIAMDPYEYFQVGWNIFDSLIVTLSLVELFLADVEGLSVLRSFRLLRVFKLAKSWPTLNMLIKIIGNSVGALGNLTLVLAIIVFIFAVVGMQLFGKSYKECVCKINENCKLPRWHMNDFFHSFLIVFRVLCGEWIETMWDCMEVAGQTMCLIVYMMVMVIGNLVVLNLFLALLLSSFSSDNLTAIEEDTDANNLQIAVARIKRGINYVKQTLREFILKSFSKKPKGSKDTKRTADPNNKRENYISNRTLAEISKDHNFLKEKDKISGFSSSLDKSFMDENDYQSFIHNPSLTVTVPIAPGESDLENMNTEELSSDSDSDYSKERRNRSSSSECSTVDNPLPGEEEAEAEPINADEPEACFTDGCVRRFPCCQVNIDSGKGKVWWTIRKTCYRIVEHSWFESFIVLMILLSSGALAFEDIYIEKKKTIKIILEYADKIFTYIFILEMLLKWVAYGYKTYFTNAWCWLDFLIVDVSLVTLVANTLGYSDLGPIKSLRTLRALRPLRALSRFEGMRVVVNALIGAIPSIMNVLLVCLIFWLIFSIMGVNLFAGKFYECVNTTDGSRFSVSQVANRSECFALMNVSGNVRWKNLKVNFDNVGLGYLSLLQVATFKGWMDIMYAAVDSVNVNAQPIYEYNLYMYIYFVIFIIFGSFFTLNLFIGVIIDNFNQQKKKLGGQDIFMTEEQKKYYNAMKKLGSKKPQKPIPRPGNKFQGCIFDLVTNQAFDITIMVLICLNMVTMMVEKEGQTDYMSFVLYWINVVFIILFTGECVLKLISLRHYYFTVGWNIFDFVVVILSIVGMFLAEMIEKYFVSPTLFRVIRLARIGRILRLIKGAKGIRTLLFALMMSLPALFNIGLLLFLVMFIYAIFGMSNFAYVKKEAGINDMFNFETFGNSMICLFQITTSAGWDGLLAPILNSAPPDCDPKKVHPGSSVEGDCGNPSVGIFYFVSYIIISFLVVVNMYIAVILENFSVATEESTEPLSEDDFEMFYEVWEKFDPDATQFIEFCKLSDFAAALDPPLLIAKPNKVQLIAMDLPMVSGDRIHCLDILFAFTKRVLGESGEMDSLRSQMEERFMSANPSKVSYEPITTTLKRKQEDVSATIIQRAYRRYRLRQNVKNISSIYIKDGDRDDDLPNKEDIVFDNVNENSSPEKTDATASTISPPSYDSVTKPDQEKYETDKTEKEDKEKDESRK

Turning to `NC1=N[C@H](O)[C@H]2[C@H]3O[C@]4(O)O[C@@H]([C@@H](O)[C@@]2(N1)[C@@H]4O)[C@]3(O)CO` [TTX, tetrodotoxin, reference compound], the “Na+ current remaining (% of initial peak amplitude)” value is on record as 64.8% ± 4.2 in series [1] and 9.5% ± 1.7 in series [2].

As to “protoxin-II: protoxin-II, Nav1.7 selective to a large extent [reference compound]”, the Nav1.7 selectivity result in [3] is recorded as “Nav1.7 selective to a large extent”. The “inhibition of Na+ current” value in series [2] (0.01 µM) is on record as 80%.

The IC50 is the concentration that inhibits the measured activity by half. Read a low IC50 as greater potency. Consider `CC[C@H](C)[C@H](NC(=O)[C@H](CCC(N)=O)NC(=O)[C@H](Cc1ccc(O)cc1)NC(=O)[C@H](CCCCN)NC(=O)[C@@H]1CSSC[C@@H]2NC(=O)[C@H](CCC(N)=O)NC(=O)[C@H](CC(=O)O)NC(=O)[C@H](CC(N)=O)NC(=O)[C@H](CO)NC(=O)[C@@H]3CCCN3C(=O)[C@H](CC(N)=O)NC(=O)[C@@H]3CSSC[C@H](NC(=O)[C@H](C(C)C)NC(=O)[C@H](CC(C)C)NC(=O)[C@H](CCCCN)NC(=O)[C@H](CO)NC(=O)[C@H](CO)NC(=O)[C@H](CCCCN)NC(=O)[C@H](CSSC[C@H](NC(=O)[C@@H](N)CCC(=O)O)C(=O)N[C@@H](CC(C)C)C(=O)N[C@@H](CCC(=O)O)C(=O)N[C@@H]([C@@H](C)CC)C(=O)N[C@@H](Cc4ccccc4)C(=O)N[C@@H](CCCCN)C(=O)N[C@@H](C)C(=O)N3)NC2=O)C(=O)N[C@@H](CO)C(=O)N[C@@H](CCCNC(=N)N)C(=O)N[C@@H](CCCCN)C(=O)N[C@@H]([C@@H](C)O)C(=O)N[C@@H](CCCNC(=N)N)C(=O)N[C@@H](Cc2c[nH]c3ccccc23)C(=O)N1)C(=O)NCC(=O)O` [sHwTx-IV GCOOH], for which the “inhibition of hNav1.4” value in series [4] is listed as “not affected”. Further, in [5], it took 2000 nM to reach half-maximal inhibition (IC50) and the “nH (Hill number)” value is 0.8. Besides, the “block of TTX-R Na+ currents” value in series [5] (130 nM) is recorded as “largely sparring”. In addition, the “force intensity for hind limb withdrawal” value in series [6] (98 nmol/kg intraplantar, 15–30 min, versus vehicle, P < 0.010) was “significantly (P < 0.010) increased”. The “dose efficiency difference between both peptides, von Frey” value in [6] (14–98 nmol/kg intraplantar) was “no dose efficiency difference could be observed between both peptides”. Besides, the “fold less potent than HwTx-IV on hNav1.7” value in [7] came out at 16 fold. Further, the “nH (Hill number)” value in series [7] (hNav1.7 (Figure 4c)) is listed as −0.98. In addition, the “nH (Hill number)” value in series [7] (hNav1.7 in CHO cells (Figure 4a)) is recorded as −0.97. Further, in series [8], the death entry is “absence of death” and the “toxicity (behaviour) after intraplantar injection” value is on record as “no abnormal mice behavior”. Also, the “reaction time to heat (latency to shake hind limb)” value in [9] (10–98 nmol/kg intraplantar, 15–30 min, versus vehicle, P < 0.050) was “significant (P < 0.050) increase in the reaction time to heat”. Moreover, the “threshold analgesic dose, hot-plate” value in [9] (intraplantar) is 10 nmol/kg. The “nH (Hill number)” value in [10] is recorded as −0.90. In series [2], the midpoint of inhibition, the IC50, lay at 14 nM; the “TTX-S peak current amplitude after wash-out” value is reported as −3.2 ± 0.7 nA; the “TimeA (10% to 90% current increase, activation)” value is 0.31 ± 0.06 ms and 0.27 ± 0.07 ms and 0.28 ± 0.11 ms; the “TimeI (90% to 10% current decrease, inactivation)” value was 6.93 ± 1.23 ms and 6.66 ± 1.42 ms and 6.59 ± 1.24 ms. In series [2], the “effect on activation or inactivation kinetics” value is “did not alter activation or inactivation kinetics”, the “fold more potent on TTX-S DRG currents than on mNav1.7 currents” value was found to be 11.8 fold, the “fold more potent than HwTx-IV on mouse DRG TTX-S Na+ currents” value was determined as 9.5 fold and the “nH (Hill number)” value came to 0.7. Further, in series [2], the “reversibility of effect on TTX-S current” value is recorded as “reversible” and the “slope (kG) of conductance-voltage curves” value is reported as “slight, but significant (P < 0.002), changes”. Also, the “VI50% (voltage of 50% inactivation)” value in series [2] (13 nM, n = 4) is listed as −82 ± 2 mV. In addition, in series [2] (13 nM, n = 5), the “VA50% (voltage of 50% maximal conductance)” value is −32 ± 1 mV. The “block of TTX-S Na+ currents” value in [2] (130 nM) was “potently blocked”. Also, in series [2] (130 nM, n = 8), the “time to stationary TTX-S peak current block” value amounted to 2.6 ± 0.6 min. In series [11], the “animals with signs of hindlimb weakness” value was “Seven out of 10”, the death entry is reported as “none of the animals died”, the distance travelled entry was “unaffected” and the duration of activity entry is on record as “unaffected”. Also, in series [11], the “number of movements, 60 min” value was “accentuated 60 min later”; the “number of movements, first 10 min” value was “reduction in the number of movements”; the rearing events result was “reduced”; the signs of suffering result was “no signs of suffering”. Moreover, in series [12], the “inhibition of hNav1.5” value is reported as “no inhibition up to 3,300 nM”.

Turning to “maurocalcin: a scorpion venom peptide (GDCLPHLKLCKENKDCCSKKCKRRGTNIEKRCR; UniProt P60254 1-33, looked up)”, the “effect of phosphorylation by protein kinase A” value in [13] was “converts the peptide from an allosteric activator to a ryanodine receptor blocker”.

Turning to ω-conotoxin MVIIA, in series [14], the “fold better affinity than non-amidated ω-conotoxin MVIIA-Gly-COOH” value was 10 fold.
